Columns and labels:
[1] = test system: MPP/DG synaptic connection; assay: Field electrophysiological recordings on hippocampal slices (MPP/DG), sham or x-irradiated animals; type: in vivo, mice
Description: Electrophysiology. Brains were collected from animals after deep anesthesia with halothane and decapitation, and transverse hippocampal slices (400 μm) were prepared using a vibratome. […] Slices were allowed to equilibrate for 2 h before positioning the electrodes and beginning stimulation.
To record from the DG, the medial perforant path (MPP) was stimulated using a World Precision Instruments (Sarasota, Fla.) stimulation isolation unit and a bipolar tungsten electrode. Evoked potentials were recorded in the molecular layer above the upper blade of the DG using a glass capillary microelectrode filled with artificial CSF (tip resistance of 1-3 MΩ). […] Input-output curves were obtained after 10 min of stable recordings. […] After 15 min of stable baseline response to test stimulation (once every 20 s), the ability to elicit LTP was assessed. […] Responses were recorded every 20 for 60 min after LTP induction.

[2] = test system: proliferating neural progenitors; assay: BrdU labelling of cell proliferation in the dentate gyrus; type: in vivo, mice
Description: Immunohistochemistry and confocal imaging. Mice were anesthetized with ketamine/xylazine (100 and 7 mg/kg, respectively) and transcardially perfused (cold saline, followed by 4% cold paraformaldehyde in PBS). […] Immunohistochemistry was performed in the following steps: 2 h incubation in 1:1 formamide/2×SSC at 65° C., 5 min rinse in 2×SSC, 30 min incubation in 2N HCl at 37° C., and 10 min rinse in 0.1M boric acid, pH 8.5, 2 h incubation in 0.1M PBS with 0.3% Triton X-100, and 5% normal donkey serum. Sections were then incubated overnight at 4° C. in primary antibodies for doublecortin (goat; 1:500; Santa Cruz Biotechnology, Santa Cruz, Calif.), bromodeoxyuridine (BrdU; rat; 1:100; Serotec, Oxford, UK), and neuronal-specific nuclear protein (NeuN) (mouse; 1:500; Chemicon, Temecula, Calif.). Biotinylated or fluorescent secondary antibodies were used. All secondary antibodies were purchased from Jackson ImmunoResearch (West Grove, Pa.). DCX staining for Sholl analysis was done as follows: sections were rinsed in PBS, treated with 1% H2O2 in 1:1 PBS and methanol for 15 min to quench endogenous peroxidase activity (and to enhance dendritic staining), incubated in 10% normal donkey serum and 0.3% Triton X-100 for 30 min, and then incubated overnight at 4° C. in primary antibody for doublecortin. […] Stereological procedure was used to quantify labeled cells (Malberg et al., 2000 ? ). […]

1A-High and 1A-Low mice = assay: Novelty-suppressed feeding paradigm in 1A-High and 1A-Low mice; type: in vivo; settings: twenty-five days, 18 mg/kg/day p.o.
Description: The NSF paradigm is a test of hyponeophagia that measures the latency of a mouse to consume food placed in the middle of a brightly lit, aversive arena.

HPA axis = assay: Stress evoked increase of corticosterone levels; type: in vivo, mice; settings: acute swim stress; baseline conditions and after chronic corticosterone treatment
Description: Adult male C57BL/6Ntac mice were exposed to a 6 minutes swim stress. […]. Blood was collected into ice-chilled tubes containing EDTA and centrifuged at 3000 rpm for 10 min (at 4° C.) for separation of plasma, and plasma samples were stored at −80° C. until assayed. […]; Diagnostic Systems Laboratories, Inc. Webster, Tex.; sensitivity limit: 20 ng/ml). ACTH was measured directly in plasma using an ImmuChem™ Double Antibody hACTH 1251 RIA kit (No. 07-106101; MP Biomedicals, LLC, Orangeburg, N.Y.) with a sensitivity limit ˜5.7 pg/ml. All samples were measured simultaneously to reduce inter-assay variability.

newborn granule cells = assay: Survival and maturation of newborn granule cells (BrdU/DCX/NeuN triple staining); type: in vivo, mice
Description: Immunohistochemistry and confocal imaging. Mice were anesthetized with ketamine/xylazine (100 and 7 mg/kg, respectively) and transcardially perfused (cold saline, followed by 4% cold paraformaldehyde in PBS). […] Serial sections were cut through the entire hippocampus (Franklin and Paxinos, 1997) using a cryostat and stored in PBS. Immunohistochemistry was performed in the following steps: 2 h incubation in 1:1 formamide/2×SSC at 65° C., 5 min rinse in 2×SSC, 30 min incubation in 2N HCl at 37° C., and 10 min rinse in 0.1M boric acid, pH 8.5, 2 h incubation in 0.1M PBS with 0.3% Triton X-100, and 5% normal donkey serum. Sections were then incubated overnight at 4° C. in primary antibodies for doublecortin (goat; 1:500; Santa Cruz Biotechnology, Santa Cruz, Calif.), bromodeoxyuridine (BrdU; rat; 1:100; Serotec, Oxford, UK), and neuronal-specific nuclear protein (NeuN) (mouse; 1:500; Chemicon, Temecula, Calif.). Biotinylated or fluorescent secondary antibodies were used. All secondary antibodies were purchased from Jackson ImmunoResearch (West Grove, Pa.). DCX staining for Sholl analysis was done as follows: sections were rinsed in PBS, treated with 1% H2O2 in 1:1 PBS and methanol for 15 min to quench endogenous peroxidase activity (and to enhance dendritic staining), incubated in 10% normal donkey serum and 0.3% Triton X-100 for 30 min, and then incubated overnight at 4° C. in primary antibody for doublecortin. After secondary antibody incubation, sections were developed using Vector ABC kit and DAB kit. Bright-field images were taken with a Zeiss (Oberkochen, Germany) Axioplan-2 upright microscope. Stereological procedure was used to quantify labeled cells (Malberg et al., 2000 ? ). All cell counting for triple-stained sections were done using a Zeiss LSM 510 META confocal microscope.
As depicted in FIG. 4A, BrdU (75 mg/kg) was given four times over 8 h on day 0 to achieve maximum labeling of proliferating progenitors over a restricted time window. […] Hippocampal sections were triple stained for BrdU, DCX, and NeuN (FIG. 4B,C). Image acquisition and cell counting were performed using a Zeiss LSM META 510 confocal microscopy.

[3] = after 3 weeks of fluoxetine, mean±SEM

SMILES: CNCCC(Oc1ccc(C(F)(F)F)cc1)c1ccccc1 (centres unmarked) [fluoxetine]
- input-output functions in the MPP/DG ([1]; chronic fluoxetine): significantly increased
- paired-pulse depression (50 ms interstimulus interval) ([1]; chronic fluoxetine, one-third of maximal response and 60 μA): suppressed
- ACSF-LTP ([1]; chronic fluoxetine, sham animals): enhanced
- LTP ([1]; chronic fluoxetine, x-irradiated animals): completely blocked
- input-output functions in the MPP/DG ([1]; subchronic fluoxetine): significantly increased
- ACSF-LTP ([1]; subchronic fluoxetine, both sham and x-irradiated animals): suppression
- number of BrdU cells in the granule cell layer (GCL) ([2]; chronic (28 d) fluoxetine 18 mg/kg/d vs vehicle): increased
- number of BrdU+ cells ([2]; sham animals of the irradiation experiment, 28 d of fluoxetine): increase
- latency to feed (NSF), response to fluoxetine (1A-High and 1A-Low mice; 1A-High mice): no response
- latency to feed (NSF), response to fluoxetine (1A-High and 1A-Low mice; 1A-Low mice): responded robustly
- stress induced corticosterone levels (HPA axis): had no effect
- number of BrdU+NeuN+DCX+ cells (newborn granule cells; 3 and 4 weeks of fluoxetine): did not have an effect
- number of cells expressing both BrdU and NeuN (newborn granule cells; 3 and 4 weeks of fluoxetine): also increased
- pool of mature BrdU+NeuN+DCX− cells (newborn granule cells; 3 and 4 weeks of fluoxetine): significantly increased
- total number of BrdU+ cells in the GCL (survival) (newborn granule cells; 3 and 4 weeks of fluoxetine begun 24 h after BrdU): significantly increased
- proportion of BrdU cells that are NeuN+ (newborn granule cells; 5 d of fluoxetine): did not change
- transition of BrdU immature cells from DCX+NeuN− stage to DCX+NeuN+ stage (newborn granule cells; 5 d of fluoxetine): did not change
- proportion of BrdU+NeuN+ cells that ceased to express DCX (newborn granule cells; [3]): 39.24±1.78
- proportion of BrdU+NeuN+ cells that express DCX (newborn granule cells; [3]): 51.64±3.71%
- survival of immature neurons as measured by BrdU (newborn granule cells; subchronic, 5 d): did not change

Reference: patent US20110296540A1, “ASSAY FOR SCREENING ANTIDEPRESSANTS” (priority 2008, published 2011)
